Calls of active or inactive are those of the source. The calls are words filed in the database; no cut-off is given here.
How the values were obtained:
[1] = Cytotoxicity against human HL60 cells after 48 hrs by WST8 assay; type: functional, cell-based; conditions: HL-60, 48 h
HeLa [2] = test: Cytotoxicity against human HeLa cells after 48 hrs by WST8 assay; type: functional, cell-based
[3] = Cytotoxicity against human HL60 cells assessed as inhibition of cell growth at 100 uM after 48 hrs by WST8 assay; type: functional; conditions: HL-60, 48 h, read-out: GI
HeLa [4] = test: Cytotoxicity against human HeLa cells assessed as inhibition of cell growth at 100 uM after 48 hrs by WST8 assay; type: functional; conditions: read-out: GI
HL-60 [5] = test: Induction of apoptosis in human HL60 cells assessed as late apoptosis level at 0.2 uM after 24 hrs by Annexin V-PE and 7-AAD staining based flow cytometry (reference value: 3.3%); type: functional
HL-60 [6] = test: Induction of apoptosis in human HL60 cells assessed as late apoptosis level at 8 uM after 24 hrs by Annexin V-PE and 7-AAD staining based flow cytometry (reference value: 3.2%); type: functional
HL-60 [7] = test: Induction of apoptosis in human HL60 cells assessed as reduction in pro-caspase-9 level at 8 uM after 24 hrs by Western blotting method; type: functional, cell-based
HL-60 [8] = test: Induction of apoptosis in human HL60 cells assessed as early apoptosis level at 8 uM after 24 hrs by Annexin V-PE and 7-AAD staining based flow cytometry (reference value: 3.3%); type: functional
HL-60 [9] = test: Induction of apoptosis in human HL60 cells assessed as increase in caspase-3 level at 8 uM after 24 hrs by Western blotting method; type: functional, cell-based
HL-60 [10] = test: Induction of apoptosis in human HL60 cells assessed as increase in caspase-9 level at 8 uM after 12 hrs by Western blotting method; type: functional, cell-based
HL-60 [11] = test: Induction of apoptosis in human HL60 cells assessed as increase in DNA fragmentation at 25 uM after 4 hrs by ethidium bromide staining and gel electrophoresis based DNA ladder analysis; type: functional, cell-based

Question: Which results are given for COC[C@H](C)[C@H](C)C(c1ccc(O)c(OC)c1)c1ccc(O)c(OC)c1?
Answer: IC50 [1]: 82 µM; IC50 (HeLa [2]): 72 µM

Question: What does the source list for COc1ccc(C(c2ccc(OC)c(OC)c2)[C@@H](C)[C@@H](C)CO)cc1OC?
Answer: IC50 [1]: > 100 µM; IC50 (HeLa [2]): > 100 µM; inhibition of growth at 100 µM [3]: 42%; inhibition of growth at 100 µM (HeLa [4]): 55%

Question: With COc1cc(C(c2ccc(O)c(OC)c2)[C@@H](C)[C@@H](C)CF)ccc1O as the compound, how does the IC50 [1] read?
Answer: 38 µM

Question: What about the IC50 (HeLa [2]) of the same compound?
Answer: 42 µM

Question: With COc1cc(C(c2ccc(O)c(OC)c2)[C@H](C)[C@H](C)CO)ccc1O as the compound, how does the IC50 [1] read?
Answer: > 100 µM

Question: What about the IC50 (HeLa [2]) of the same compound?
Answer: > 100 µM

Question: And the inhibition of growth at 100 µM [3]?
Answer: 23%

Question: And the inhibition of growth at 100 µM (HeLa [4])?
Answer: 0%

Question: With COC[C@H](C)[C@@H](C)C(c1ccc(O)c(OC)c1)c1ccc(O)c(OC)c1 as the compound, how does the IC50 [1] read?
Answer: 68 µM

Question: And the IC50 (HeLa [2])?
Answer: 77 µM

Question: Which IC50 [1] does the source give for COc1cc(C(c2ccc(O)c(OC)c2)[C@@H](C)[C@@H](C)CO)ccc1O here?
Answer: > 100 µM

Question: And the IC50 (HeLa [2])?
Answer: > 100 µM

Question: What about the inhibition of growth at 100 µM [3] of the same compound?
Answer: 3%

Question: What about the inhibition of growth at 100 µM (HeLa [4]) of the same compound?
Answer: 8%

Question: Which IC50 [1] does the source give for COc1cc(C(c2ccc(O)c(OC)c2)[C@H](C)[C@H](C)CF)ccc1O here?
Answer: 56 µM

Question: And the IC50 (HeLa [2])?
Answer: 75 µM

Question: With COC[C@@H](C)[C@@H](C)C(c1ccc(O)c(OC)c1)c1ccc(O)c(OC)c1 as the compound, how does the IC50 [1] read?
Answer: 85 µM

Question: And the IC50 (HeLa [2])?
Answer: > 100 µM

Question: What about the inhibition of growth at 100 µM (HeLa [4]) of the same compound?
Answer: 34%

Question: Which IC50 [1] does the source give for COc1cc(C(c2ccc(O)c(OC)c2)[C@H](CF)C(C)C)ccc1O here?
Answer: 19 µM

Question: And the IC50 (HeLa [2])?
Answer: 19 µM

Question: What does the source list for COc1cc(C(c2ccc(O)c(OC)c2)[C@@H](C)[C@H](C)CF)ccc1O?
Answer: IC50 [1]: 32 µM; IC50 (HeLa [2]): 37 µM

Question: For COc1cc(C(c2ccc(O)c(OC)c2)[C@@H](CF)C(C)C)ccc1O, which IC50 [1] is on record?
Answer: 39 µM

Question: And the IC50 (HeLa [2])?
Answer: 41 µM

Question: For COC[C@H](C(C)C)C(c1ccc(O)c(OC)c1)c1ccc(O)c(OC)c1, which IC50 [1] is on record?
Answer: 72 µM

Question: And the IC50 (HeLa [2])?
Answer: 76 µM

Question: With COc1ccc(C(c2ccc(OC)c(OC)c2)[C@H](C)[C@H](C)CO)cc1OC as the compound, how does the IC50 [1] read?
Answer: > 100 µM

Question: What about the IC50 (HeLa [2]) of the same compound?
Answer: > 100 µM

Question: And the inhibition of growth at 100 µM [3]?
Answer: 28%

Question: And the inhibition of growth at 100 µM (HeLa [4])?
Answer: 13%

Question: Which IC50 [1] does the source give for CCCCC[C@H](C(C)C)C(c1ccc(O)c(OC)c1)c1ccc(O)c(OC)c1 here?
Answer: 9.6 µM

Question: What about the IC50 (HeLa [2]) of the same compound?
Answer: 9.2 µM

Question: Which results are given for COc1cc(C(c2ccc(O)c(OC)c2)[C@H](C)[C@@H](C)CO)ccc1O?
Answer: IC50 [1]: > 100 µM; IC50 (HeLa [2]): > 100 µM; inhibition of growth at 100 µM [3]: 7%; inhibition of growth at 100 µM (HeLa [4]): 7%

Question: For CN[C@@H]1C[C@H]2O[C@@](C)([C@@H]1OC)n1c3ccccc3c3c4c(c5c6ccccc6n2c5c31)C(=O)NC4 [STAUROSPORINE], which Activity (HL-60 [5]) is on record?
Answer: 17.4%

Question: Which IC50 [1] does the source give for COc1cc(C(c2ccc(O)c(OC)c2)[C@H](C)C(C)C)ccc1O here?
Answer: 17 µM

Question: And the IC50 (HeLa [2])?
Answer: 16 µM

Question: With CCCCCCCC[C@H](C(C)C)C(c1ccc(O)c(OC)c1)c1ccc(O)c(OC)c1 as the compound, how does the Activity (HL-60 [6]) read?
Answer: 33.1%

Question: And the IC50 [1]?
Answer: 3.7 µM

Question: What about the IC50 (HeLa [2]) of the same compound?
Answer: 3.1 µM

Question: What about the Activity (HL-60 [7]) of the same compound?
Answer: Active

Question: And the Activity (HL-60 [8])?
Answer: 13.5%

Question: And the Activity (HL-60 [9])?
Answer: Active

Question: And the Activity (HL-60 [10])?
Answer: Active

Question: And the Activity (HL-60 [11])?
Answer: Active

Question: With COc1ccc(C(c2ccc(OC)c(OC)c2)[C@H](C)[C@@H](C)CO)cc1OC as the compound, how does the IC50 [1] read?
Answer: 47 µM

Question: What about the IC50 (HeLa [2]) of the same compound?
Answer: 67 µM

Question: For COc1cc(C(c2ccc(O)c(OC)c2)[C@H](C)[C@@H](C)CF)ccc1O, which IC50 [1] is on record?
Answer: 45 µM

Question: What about the IC50 (HeLa [2]) of the same compound?
Answer: 34 µM

Question: With COc1cc(C(c2ccc(O)c(OC)c2)[C@H](CO)C(C)C)ccc1O as the compound, how does the IC50 [1] read?
Answer: > 100 µM

Question: What about the IC50 (HeLa [2]) of the same compound?
Answer: > 100 µM

Question: What about the inhibition of growth at 100 µM [3] of the same compound?
Answer: 10%

Question: And the inhibition of growth at 100 µM (HeLa [4])?
Answer: 3%

Question: With COC[C@@H](C)[C@H](C)C(c1ccc(O)c(OC)c1)c1ccc(O)c(OC)c1 as the compound, how does the IC50 [1] read?
Answer: 73 µM

Question: What about the IC50 (HeLa [2]) of the same compound?
Answer: 58 µM

Question: For COC[C@@H](C(C)C)C(c1ccc(O)c(OC)c1)c1ccc(O)c(OC)c1, which IC50 [1] is on record?
Answer: 54 µM

Question: What about the IC50 (HeLa [2]) of the same compound?
Answer: 69 µM

Question: What does the source list for COc1cc(C(c2ccc(O)c(OC)c2)[C@@H](C)[C@H](C)CO)ccc1O?
Answer: IC50 [1]: > 100 µM; IC50 (HeLa [2]): > 100 µM; inhibition of growth at 100 µM [3]: 0%; inhibition of growth at 100 µM (HeLa [4]): 7%

Question: For COc1cc(C(c2ccc(O)c(OC)c2)[C@@H](C)C(C)C)ccc1O, which IC50 [1] is on record?
Answer: 20 µM

Question: And the IC50 (HeLa [2])?
Answer: 19 µM

Question: Which results are given for COc1cc(C(c2ccc(O)c(OC)c2)[C@H](CC(C)C)C(C)C)ccc1O?
Answer: IC50 [1]: 9.6 µM; IC50 (HeLa [2]): 8.2 µM

Question: For CC[C@H](C(C)C)C(c1ccc(O)c(OC)c1)c1ccc(O)c(OC)c1, which IC50 [1] is on record?
Answer: 16 µM

Question: And the IC50 (HeLa [2])?
Answer: 9.7 µM

Question: For COc1cc(C(c2ccc(O)c(OC)c2)[C@@H](CO)C(C)C)ccc1O, which IC50 [1] is on record?
Answer: > 100 µM

Question: What about the IC50 (HeLa [2]) of the same compound?
Answer: > 100 µM

Question: And the inhibition of growth at 100 µM [3]?
Answer: 18%

Question: What about the inhibition of growth at 100 µM (HeLa [4]) of the same compound?
Answer: 2%

Question: Which IC50 [1] does the source give for COc1ccc(C(c2ccc(OC)c(OC)c2)[C@@H](C)[C@H](C)CO)cc1OC here?
Answer: > 100 µM

Question: And the IC50 (HeLa [2])?
Answer: > 100 µM

Question: And the inhibition of growth at 100 µM [3]?
Answer: 0%

Question: And the inhibition of growth at 100 µM (HeLa [4])?
Answer: 0%
